Each compound was assayed against T1, SARM1 (Homo sapiens, UniProt Q6SZW1) (assay: ARM-SAM-TIR SARM1 IC50 assay (NADase activity, NAD+ cleavage)). Conditions: ARM-SAM-TIR lysate 5 μg/mL, 2 h pre-incubation, 5 μM NAD+, 2 hr room temperature, RapidFire mass spectrometry of NAD+ and ADPR.
T1 construct: made in house; host or cells: NRK1-HEK293T cells, transient transfection; clarified lysate used without purification
T1 sequence (Q6SZW1 with tags, fused parts or gaps): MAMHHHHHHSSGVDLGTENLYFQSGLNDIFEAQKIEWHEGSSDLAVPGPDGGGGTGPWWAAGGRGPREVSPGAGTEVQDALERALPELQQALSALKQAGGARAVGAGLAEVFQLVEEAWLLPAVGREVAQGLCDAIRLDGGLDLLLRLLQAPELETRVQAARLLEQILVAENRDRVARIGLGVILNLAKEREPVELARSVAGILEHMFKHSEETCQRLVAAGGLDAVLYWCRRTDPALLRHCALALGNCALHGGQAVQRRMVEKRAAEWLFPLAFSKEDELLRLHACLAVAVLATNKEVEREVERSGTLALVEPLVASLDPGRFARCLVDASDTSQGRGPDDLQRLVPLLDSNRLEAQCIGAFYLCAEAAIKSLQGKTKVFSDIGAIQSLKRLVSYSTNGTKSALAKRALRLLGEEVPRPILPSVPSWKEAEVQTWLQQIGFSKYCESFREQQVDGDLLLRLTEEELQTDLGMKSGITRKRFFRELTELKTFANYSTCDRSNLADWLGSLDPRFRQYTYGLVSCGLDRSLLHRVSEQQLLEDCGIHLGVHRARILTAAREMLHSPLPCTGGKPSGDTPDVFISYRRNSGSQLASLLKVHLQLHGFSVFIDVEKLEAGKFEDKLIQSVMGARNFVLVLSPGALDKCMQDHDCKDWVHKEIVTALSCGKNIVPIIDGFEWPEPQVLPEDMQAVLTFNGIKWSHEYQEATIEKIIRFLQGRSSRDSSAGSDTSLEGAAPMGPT
Format: biochemical
Protocol: This Example describes an assay of ARM-SAM-TIR NADase activity and use of this assay to measure the efficacy of compounds of Formula I/II to block SARM1 mediated NAD+ cleavage. This assay was optimized in such a way as to characterize the efficacy of the compounds in Formula I/II to inhibit SARM1 activity and to calculate an IC50 value for each compound. This assay makes use of full length SARM1, which encompasses the ARM, SAM and TIR domains.
NRK1-HEK293T cells were seeded onto 150 cm^2 plates at 20×10^6 cells per plate. The next day, the cells were transfected with 15 μg ARM-SAM-TIR expression plasmid, SEQ ID NO: 1.
The cultures were supplemented with 1 mM NR at time of transfection to minimize toxicity from ARM-SAM-TIR overexpression. Forty-eight hours after transfection, cells were harvested, pelleted by centrifugation at 1,000 rpm (Sorvall ST 16R centrifuge, Thermo Fisher), and washed once with cold PBS (0.01 M phosphate buffered saline NaCl 0.138 M; KCl 0.0027 M; pH 7.4). The cells were resuspended in PBS with protease inhibitors (cOmplete™ protease inhibitor cocktail, Roche product #11873580001) and cell lysates were prepared by sonication (Branson Sonifer 450, output=3, 20 episodes of stroke). The lysates were centrifuged (12,000×g for 10 min at 4° C.) to remove cell debris and the supernatants (containing ARM-SAM-TIR protein) were stored at −80° C. for later use in the in vitro ARM-SAM-TIR NADase assay (see below). Protein concentration was determined by the Bicinchoninic (BCA) method and used to normalize lysate concentrations.
The enzymatic assay was performed in a 384-well polypropylene plate in Dulbecco's PBS buffer in a final assay volume of 20 μL. ARM-SAM-TIR lysate with a final concentration of 5 μg/mL was pre-incubated with the respective compound at 1% DMSO final assay concentration over 2 h at room temperature. The reaction was initiated by addition of 5 μM final assay concentration of NAD+ as substrate. After a 2 hr room temperature incubation, the reaction was terminated with 40 μL of stop solution of 7.5% trichloroactetic acid in acetonitrile. The NAD+ and ADPR concentrations were analyzed by a RapidFire High Throughput Mass Spectrometry System (Agilent Technologies, Santa Clara, Calif.) using an API4000 triple quadrupole mass spectrometer (AB Sciex Framingham, Mass.).

Compound	IC50
O=C(CCc1ccc(Cl)nc1)N1CCCc2c(-c3ccncc3)n[nH]c21 [Example 1]	100 to 1000 nM
O=C(CCc1ccc(Cl)cc1)N1CCCc2c(-c3ccncc3)n[nH]c21 [Example 2]	< 100 nM
O=C(CCc1ccc(Cl)cc1)N1CCOc2c(-c3ccncc3)n[nH]c21 [Example 3]	< 100 nM
O=C(NCc1ccc(Cl)nc1)N1CCCc2c(-c3ccncc3)n[nH]c21 [Example 4]	> 10000 nM
O=C(NCc1ccc(Cl)cc1)N1CCCc2c(-c3ccncc3)n[nH]c21 [Example 5]	1010 to 5000 nM
O=C(CCc1ccc(Cl)cc1)N1CCOc2c(-c3ccnnc3)n[nH]c21 [Example 6]	< 100 nM
O=C(CCc1ccc(Cl)cc1)N1CCCc2c(-c3ccnnc3)n[nH]c21 [Example 7]	< 100 nM
N#Cc1ccc(CCC(=O)N2CCCc3c(-c4ccncc4)n[nH]c32)cc1 [Example 8]	100 to 1000 nM
N#Cc1ccc(CCC(=O)N2CCCc3c(-c4ccnnc4)n[nH]c32)cc1 [Example 9]	< 100 nM
O=C(CCc1ccc(Cl)nc1)N1CCCc2c(-c3ccnnc3)n[nH]c21 [Example 10]	< 100 nM
O=C(CCc1cnc(Cl)c(F)c1)N1CCCc2c(-c3ccncc3)n[nH]c21 [Example 11]	< 100 nM
O=C(CCc1cnc(Cl)c(F)c1)N1CCCc2c(-c3ccnnc3)n[nH]c21 [Example 12]	< 100 nM

Second part, the compound after the results:

IC50	Compound
< 100 nM	O=C(CCc1ccc(Cl)c(F)c1)N1CCCc2c(-c3ccncc3)n[nH]c21 [Example 13]
< 100 nM	N#Cc1ccc(CCC(=O)N2CCCc3c(-c4ccncc4)n[nH]c32)cc1F [Example 14]
< 100 nM	O=C(CCc1ccc(Cl)c(F)c1)N1CCCc2c(-c3ccnnc3)n[nH]c21 [Example 15]
< 100 nM	N#Cc1ccc(CCC(=O)N2CCCc3c(-c4ccnnc4)n[nH]c32)cc1F [Example 16]
< 100 nM	O=C1CCN(C(=O)CCc2ccc(Cl)cc2)c2[nH]nc(-c3ccncc3)c21 [Example 17]
100 to 1000 nM	O=C1CCN(C(=O)CCc2ccc(Cl)nc2)c2[nH]nc(-c3ccncc3)c21 [Example 18]
< 100 nM	O=C(CCc1ccc(Cl)cc1)N1CCC(O)c2c(-c3ccncc3)n[nH]c21 (centres unmarked) [Example 19]
100 to 1000 nM	O=C(CCc1ccc(Cl)nc1)N1CCC(O)c2c(-c3ccncc3)n[nH]c21 (centres unmarked) [Example 20]
